{"source": "paper PMC9604483", "about": "“Crystal Structure of CYP3A4 Complexed with Fluorol Identifies the Substrate Access Channel as a High-Affinity Ligand Binding Site” (International Journal of Molecular Sciences, 2022)", "key": {"T224A CYP3A4 [1]": {"molecular_target": "T1, T224A CYP3A4 (Homo sapiens, UniProt P08684, T224A)", "T1 construct": "made in house", "T1 sequence (P08684 with tags, fused parts or gaps T224A)": "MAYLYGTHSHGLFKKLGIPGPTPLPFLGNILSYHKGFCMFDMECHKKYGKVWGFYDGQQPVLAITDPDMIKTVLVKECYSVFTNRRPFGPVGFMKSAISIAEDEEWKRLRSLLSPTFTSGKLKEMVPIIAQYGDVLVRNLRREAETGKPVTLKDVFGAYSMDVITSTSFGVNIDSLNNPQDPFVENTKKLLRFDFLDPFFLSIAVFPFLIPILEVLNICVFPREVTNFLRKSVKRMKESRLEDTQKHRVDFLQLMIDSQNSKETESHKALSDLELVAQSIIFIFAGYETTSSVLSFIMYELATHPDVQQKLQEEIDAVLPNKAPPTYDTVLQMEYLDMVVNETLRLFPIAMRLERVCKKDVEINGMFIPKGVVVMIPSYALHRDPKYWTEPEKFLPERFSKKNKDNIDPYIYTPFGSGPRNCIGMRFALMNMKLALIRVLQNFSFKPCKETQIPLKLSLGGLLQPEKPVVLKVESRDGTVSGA", "experiment": "Equilibrium fluorescence titrations of fluorol with CYP3A4", "format": "binding", "conditions": "for Kd: read-out: Kd, fluorometric", "text": "(§1) Equilibrium fluorescence titrations were used as an alternative approach for Kd determination. One advantage of fluorol is a large Stokes shift (difference between the absorption and emission maxima; Figure S1B) and sensitivity to environment, as emission becomes more intense and blue-shifted when polarity of the medium decreases (Figure S1C). Moreover, spectral overlap between the emission band of fluorol and Q-bands of CYP3A4 enables fluorescence resonance energy transfer (FRET) to the heme. This process dominates during complex formation with CYP3A4, because emission is decreased rather than enhanced when fluorol transfers from an aqueous media to a more hydrophobic protein environment. One complication that we encountered during fluorescence measurements was a nonspecific decrease in emission, presumably due to adhesion of fluorol to plastic pipette tips. To overcome this problem, before each titration, small amounts of buffer were added to fluorol solution in 1–2 μL increments (8–10 additions; <2% of volume change) and mixed using the same low-retention pipette tip. When no further changes in fluorescence intensity were observed, the same tip was used for addition and mixing of CYP3A4 aliquots (Figure 4A). […] This means that the low-affinity site in T224A CYP3A4 is less solvated and/or lies closer to the heme.\n(§2) As a result, in GS8-bound CYP3A4, fluorol might still be able to bind to the channel, albeit in a different orientation (Figure S2C). […] Thus, regardless of what ligand is bound, only the low-affinity site was available for fluorol in both WT and T224A CYP3A4.\n(§3) Fluorescence measurements—Equilibrium fluorescence titrations were conducted on a Hitachi F-7000 fluorescence spectrophotometer at 23 °C in 50 mM phosphate buffer, pH 7.4, containing 0.6 mg/mL β-cyclodextrin. Fluorol solution (1 μM) was first titrated with small amounts of buffer using a low-retention plastic pipette tip until no further changes in fluorescence were detected (λex = 440 nm); then, the same tip was used for CYP3A4 additions (6 μM final concentration). […] CYP3A4-dependent changes in fluorescence intensity were plotted vs. CYP3A4 concentration, and Kd values were derived from nonlinear regression fittings."}, "WT CYP3A4": {"molecular_target": "T2, WT CYP3A4 (Homo sapiens, UniProt P08684)", "T2 construct": "made in house", "T2 sequence (P08684 with tags, fused parts or gaps)": "as the sequence (P08684 with tags, fused parts or gaps T224A) above, with A204T counted along it", "experiment": "Equilibrium fluorescence titrations of fluorol with CYP3A4", "format": "binding", "text": "as §1, §2, §3"}, "T224A CYP3A4 [2]": {"molecular_target": "T1, T224A CYP3A4", "experiment": "Fluorol oxidation in a reconstituted system with cytochrome P450 reductase", "format": "in vitro ADME", "conditions": "25 μM fluorol, 1 μM CYP3A4, 2 μM CPR, 37 °C; substrate/product ratio", "protocol": "This possibility was tested in a reconstituted system with cytochrome P450 reductase. […] The mass shift of +16 Da implies that fluorol undergoes a single-site oxidation.\nFluorol metabolism—Oxidation of fluorol by WT and T224A CYP3A4 was assessed in a reconstituted system with cytochrome P450 reductase. Reaction was carried out at 37 °C in 100 mM potassium phosphate, pH 7.4, containing catalase and superoxide dismutase (2 units/mL each), 1 μM WT or T224A CYP3A4, 2 μM CPR, NADPH regenerating system (10 mM glucose, 0.2 mM NADP^+, and 2 units/mL glucose-6-phosphate dehydrogenase), and 25 μM fluorol. After addition of 80 μM NADPH, samples were gently shaken, and 0.5 mL aliquots were taken in 15 min intervals. The reaction was stopped by adding 2 mL of dichloromethane. After 30 s vortexing, 1 mL of 0.3 M NaCl was added, and the sample was vortexed again and centrifuged for 10 min at 3000× g and 4 °C. The bottom organic phase (1 mL) was transferred to a glass vial, evaporated under the stream of nitrogen, and dissolved in 150 μL of methanol. Samples were analyzed by electrospray ionization mass spectroscopy using a Micromass LCP Premier mass spectrometer (Waters, Milford, MA, USA) in the negative ion mode, with 0.2 mL/min methanol flow. Chromatogram analysis and integrations were performed with Waters MassLynx MS software."}, "[3]": {"experiment": "Fluorol solubility/aggregation monitored by emission changes", "format": "physicochemical", "conditions": "50 mM potassium phosphate, pH 7.4; with or without 0.6 mg/mL β-cyclodextrin", "protocol": "In our working solution (50 mM potassium phosphate, pH 7.4), dependence of emission intensity on fluorol concentration was linear only within the 0.1–4 μM range (Figure S1A). Addition of 0.6 mg/mL β-cyclodextrin, reported to improve solubility of fluorol, made no difference. For consistency, β-cyclodextrin was included in the assay buffers, while the working concentration of fluorol was limited to 3 μM to avoid/minimize artefacts associated with fluorol aggregation."}, "CYP3A4": {"molecular_target": "CYP3A4 (Homo sapiens, UniProt P08684)", "sequence (P08684 whole entry)": "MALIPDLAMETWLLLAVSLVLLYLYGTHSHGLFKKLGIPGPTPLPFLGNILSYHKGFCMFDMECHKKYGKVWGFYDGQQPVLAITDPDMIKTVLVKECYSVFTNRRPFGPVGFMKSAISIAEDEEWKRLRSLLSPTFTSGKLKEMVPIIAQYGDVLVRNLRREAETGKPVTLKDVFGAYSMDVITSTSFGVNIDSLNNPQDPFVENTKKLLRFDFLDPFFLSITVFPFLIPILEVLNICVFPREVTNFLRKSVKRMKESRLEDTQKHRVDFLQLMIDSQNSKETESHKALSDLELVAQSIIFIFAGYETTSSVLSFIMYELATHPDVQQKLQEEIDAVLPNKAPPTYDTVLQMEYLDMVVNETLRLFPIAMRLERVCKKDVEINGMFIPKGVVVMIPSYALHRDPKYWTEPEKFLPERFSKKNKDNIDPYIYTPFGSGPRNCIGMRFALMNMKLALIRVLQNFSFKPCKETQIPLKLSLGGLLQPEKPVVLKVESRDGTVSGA", "design": "method as in PMID 22194603", "conditions": "prior study, cited from earlier work; for Kd: up to 60 μM fluorol"}}, "note": "Read-outs that look alike come from different tables or passages of the source."}
{"smiles": "CCCCNc1ccc2c3c(cccc13)C(=O)N(CCCC)C2=O", "note": "[fluorol, 2-butyl-6-(butylamino)-1H-benzo[de]isoquinoline-1,3(2H)-dione]", "values": [{"measurement": "Ligand-dependent decrease in emission change", "setting": "T224A CYP3A4 [1]; GS8-bound T224A CYP3A4", "result": 7, "unit": "%"}, {"measurement": "Kd", "setting": "T224A CYP3A4 [1]; T224A CYP3A4 in presence of 0.4 μM GS8, one-site model", "result": "1600 ± 200", "unit": "nM"}, {"measurement": "Kd", "setting": "T224A CYP3A4 [1]; T224A CYP3A4 in presence of 0.4 μM RIT, one-site model", "result": "3500 ± 300", "unit": "nM"}, {"measurement": "Kd", "setting": "T224A CYP3A4 [1]; T224A CYP3A4 in presence of 20 μM PRG, one-site model", "result": "1800 ± 200", "unit": "nM"}, {"measurement": "Ligand-dependent increase in emission change", "setting": "T224A CYP3A4 [1]; T224A CYP3A4 in the presence of progesterone", "result": 20, "unit": "%"}, {"measurement": "Fluorescence decay in T224A relative to WT", "setting": "T224A CYP3A4 [1]; larger in T224A, equilibrium titration", "result": "~ 20%"}, {"measurement": "Kd", "setting": "T224A CYP3A4 [1]; ligand-free T224A CYP3A4, only a low-affinity site detected", "result": "2000 ± 300", "unit": "nM"}, {"measurement": "Ligand-dependent decrease in emission change", "setting": "T224A CYP3A4 [1]; ritonavir-bound T224A CYP3A4", "result": 20, "unit": "%"}, {"measurement": "Reduction of emission quenching", "setting": "WT CYP3A4; GS8-bound WT CYP3A4 vs ligand-free", "result": 10, "unit": "%"}, {"measurement": "Kd", "setting": "WT CYP3A4; WT CYP3A4 in presence of 0.4 μM GS8, one-site model, read-out: Kd, fluorometric", "result": "2100 ± 300", "unit": "nM"}, {"measurement": "Kd", "setting": "WT CYP3A4; WT CYP3A4 in presence of 0.4 μM RIT, one-site model, read-out: Kd, fluorometric", "result": "4800 ± 600", "unit": "nM"}, {"measurement": "Kd", "setting": "WT CYP3A4; WT CYP3A4 in presence of 20 μM PRG, one-site model, read-out: Kd, fluorometric", "result": "2400 ± 200", "unit": "nM"}, {"measurement": "Kd at 1 μM", "setting": "WT CYP3A4; human, ligand-free WT CYP3A4 protein in buffer, pH 7.4, ligand-free WT CYP3A4, read-out: Kd, fluorometric, low-affinity site", "result": "2400 ± 400", "unit": "nM"}, {"measurement": "Percentage of the fluorescence change due to binding of fluorol to the high-affinity site", "setting": "WT CYP3A4; ligand-free WT CYP3A4", "result": 25, "unit": "%"}, {"measurement": "Kd", "setting": "WT CYP3A4; ligand-free WT CYP3A4, 1 μM fluorol, 23 °C, pH 7.4, read-out: Kd, fluorometric, high-affinity site", "result": "150 ± 30", "unit": "nM"}, {"measurement": "Reduction of emission quenching", "setting": "WT CYP3A4; ritonavir-bound WT CYP3A4 vs ligand-free", "result": 30, "unit": "%"}, {"measurement": "Efficiency of fluorol oxidation, mutant less efficient than WT", "setting": "T224A CYP3A4 [2]", "result": "~ 20%"}, {"measurement": "Concentration range with linear dependence of emission intensity (no aggregation)", "setting": "[3]", "result": "100 to 4000", "unit": "nM"}, {"measurement": "Kd", "setting": "CYP3A4; read-out: Kd, high-affinity site (peripheral area)", "result": "~3000", "unit": "nM"}, {"measurement": "Kd", "setting": "CYP3A4; read-out: Kd, low-affinity area (catalytic cavity)", "result": 10000, "unit": "nM"}, {"measurement": "Hill coefficient", "setting": "CYP3A4", "result": 1.93}]}
